The test system of assay [1] is Tau phosphorylation at Ser 396 in SH-SY5Y cells. As to the kind of experiment: Aβ25-35-induced Tau phosphorylation (Ser396) in SH-SY5Y cells, Western blotting. The assay is classed as cell-based, human. As to conditions: 100 nM, inhibitors 1 hour, then Aβ25–35 6 hours, Western blot. On the procedure:
It has been implicated that GSK-3β is involved in multiple cellular processes, and its ability to hyperphosphorylate Tau protein and induce neurofibrillary tangle was intensively studied. Therefore, the cell-based assay examining Tau phosphorylation at Serine 396 represents a direct functional assay to measure the cellular activity of GSK-3β inhibitors. Compounds 7c, 7f, 7j–l and 7o–q were tested for the ability to reduce Tau phosphorylation at Ser 396 in human neuroblastoma SH-SY5Y cells. LiCl, a well-known inhibitor of GSK-3β [24], was used as a positive control in this assay. […] The Aβ-induced Tau hyperphosphorylation results in neurofibrillary tangle formation, which plays an important role in Alzheimer’s disease. […] In addition, the predictions about these compounds’ brain permeability were performed using ADME module with Discovery Studio 2.1 software package.
SH-SY5Y human neuroblastoma cells were obtained from the American Type Culture Collection (ATCC, Manassas, VA, USA). Cells were cultured in 1:1 DMEM:Ham's F12 containing 10% (v/v) fetal bovine serum (HyClone, Logan, UT, USA), 1% penicillin, and 1% streptomycin at a humidified atmosphere with 5% CO2. The medium was changed every 2 days. […] Antigen-antibody complexes were detected by the ECL Kit.

The next assay concerns the target T1, JAK2 (Homo sapiens, UniProt O60674).
T1 construct: His-tag (N); made in house
As to the kind of experiment: JAK2 kinase assay (HTRF). The assay is classed as biochemical. As to conditions: read-out: JAK2 inhibition% at 0.8 μg/mL (~2 μM). On the procedure: GSK3β belongs to CMGC family. Here, the other family members were used to evaluate the selectivity of GSK3β inhibitors, including PKC-epsilon (AGC family), JAK2 (TK family), Braf (TKL family), DRAK2 (CAMK family) and IKKβ (other family).The recombinant GST-GSK-3βprotein was expressed in Escherichia coli strain BL21-Codon Plus (DE3), purified by GSTrap affinity chromatography, and cleaved by thrombin. The GSK-3β kinase assay was carried out with the Z´-LYTETM Kinase Assay kit Ser/Thr 9 Peptide substrate (Invitrogen, Grand, NY, USA) in 10 μL reaction volume containing 50 nM enzyme, 30 μM ATP and 2 μM substrate peptide. Drak2 Proteins were presented by professor Jiang-ping Wu (Laboratory of Immunology, Research Centre, CHUM, Notre Dame Hospital, Pavilion DeSève). The Drak2 kinase reaction was performed in a final assay volume of 3.4 μL using the ADP-GLO Kinase Assay Kit (Promega, Madison, WI, USA), according the ADP-GLO protocol and read on an EnVision plate reader. The recombinant PKC-epsilon, IKKβ, and JAK2 with N-terminal His-tag were expressed using baculovirus expression system and purified with Ni-Beads. BRAF protein was from Carna Biosciences, Inc. (Kobe Port Island, Japan). And the related kinase reactions were performed in a final assay volume of 10 μL using the related HTRF Assay Kit (Cisbio, Codolet, France). Reactions were according the HTRF protocol and read on an EnVision plate reader. All reactions were carried out in triplicate. […] Data were expressed as mean ± SE.

T1 sequence (O60674 whole entry): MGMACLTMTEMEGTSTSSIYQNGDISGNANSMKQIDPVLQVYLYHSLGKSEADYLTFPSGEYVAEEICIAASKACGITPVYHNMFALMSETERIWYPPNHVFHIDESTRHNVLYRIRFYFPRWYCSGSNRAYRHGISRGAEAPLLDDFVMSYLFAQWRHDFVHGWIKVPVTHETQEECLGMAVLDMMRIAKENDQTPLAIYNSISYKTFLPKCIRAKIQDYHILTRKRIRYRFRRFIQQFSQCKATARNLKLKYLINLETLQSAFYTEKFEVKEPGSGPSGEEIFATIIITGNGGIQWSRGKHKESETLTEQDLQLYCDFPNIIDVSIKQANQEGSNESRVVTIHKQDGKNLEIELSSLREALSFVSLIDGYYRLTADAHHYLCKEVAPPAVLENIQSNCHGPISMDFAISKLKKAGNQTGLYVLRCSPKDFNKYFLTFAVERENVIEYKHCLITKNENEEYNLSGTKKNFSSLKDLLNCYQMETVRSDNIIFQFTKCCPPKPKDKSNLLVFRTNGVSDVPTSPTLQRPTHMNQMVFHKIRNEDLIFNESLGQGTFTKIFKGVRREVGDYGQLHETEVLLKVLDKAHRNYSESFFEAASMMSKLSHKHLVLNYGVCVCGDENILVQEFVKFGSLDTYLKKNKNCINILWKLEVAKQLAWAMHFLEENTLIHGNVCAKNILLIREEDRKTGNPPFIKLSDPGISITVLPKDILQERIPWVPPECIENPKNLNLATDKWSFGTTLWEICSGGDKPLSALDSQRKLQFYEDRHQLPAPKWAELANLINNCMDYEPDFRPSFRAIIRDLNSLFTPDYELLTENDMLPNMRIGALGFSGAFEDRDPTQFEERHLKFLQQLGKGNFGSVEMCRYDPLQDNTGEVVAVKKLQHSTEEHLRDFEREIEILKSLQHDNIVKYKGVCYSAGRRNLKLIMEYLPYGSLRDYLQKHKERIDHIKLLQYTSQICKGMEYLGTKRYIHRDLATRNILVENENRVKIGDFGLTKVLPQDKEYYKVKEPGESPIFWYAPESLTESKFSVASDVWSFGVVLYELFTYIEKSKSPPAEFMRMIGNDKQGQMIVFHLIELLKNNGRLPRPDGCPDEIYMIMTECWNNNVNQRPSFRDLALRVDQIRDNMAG

As to `O=C1NC(=O)C(c2cn(CCCN3CCOCC3)c3ccc(Br)cc23)=C1c1noc2ccccc12` [7c, 3-(Benzo[d]isoxazol-3-yl)-4-(5-bromo-1-(3-morpholinopropyl)-1H-indol-3-yl)-1H-pyrrole-2,5-dione], in assay [1], the “Effect on Aβ25-35-induced Tau phosphorylation at Ser 396” value is given as “obviously reduce”. Further, the inhibition at 2 µM at JAK2 is 0.1%.

These data come from paper PMC6270165, “Synthesis and Biological Evaluation of 3-Benzisoxazolyl-4-indolylmaleimides as Potent, Selective Inhibitors of Glycogen Synthase Kinase-3β” (Molecules, 2013).
